Assay results: US20250101023A1, “HETEROARYL DERIVATIVE AND USES THEREOF” (IUCF-HYU (INDUSTRY-UNIVERSITY COOPERATION FOUNDATION …, priority 2022, published 2025)

Tests used:
[1] = molecular target: CDK12/CyclinK (Homo sapiens (Human), UniProt Q9NYV4); test: CDK12/cyclinK enzyme activity; assay type: biochemical; conditions: in vitro
[2] = tested on: HCC1954 cells; test: Breast cancer growth inhibitory activity (Cell-titer Glo, 72 h); assay type: cell-based; conditions: Homo sapiens, 72 hours, read-out: HCC1954 (GI50/μM)
Experimental: (§1) Breast cancer cells in a culture solution (100 μL volume/well, 2,500 SK-Br3 cells/well, 1,000 HCC-1954 cells/well) were seeded into a tissue culture-treated 96-well plate and cultured in a cell incubator for 24 hours. […] Cell-titer Glo™ reagent (50 μL of a 5-fold diluted solution, Promega) was added to each well, and luminescence signals were measured using an Envision™ plate reader (PerkinElmer, USA). Titration curve fitting and IC50 values were generated using Prism 7.0 s/w (GraphPad, San Diego, USA).

[3] = tested on: SK-Br3 cells; test: as above; assay type: cell-based; conditions: Homo sapiens, SK-BR-3; 72 hours; read-out: SK-Br3 (GI50/μM)
Experimental: as §1

Sequence of CDK12/CyclinK (Q9NYV4 whole entry): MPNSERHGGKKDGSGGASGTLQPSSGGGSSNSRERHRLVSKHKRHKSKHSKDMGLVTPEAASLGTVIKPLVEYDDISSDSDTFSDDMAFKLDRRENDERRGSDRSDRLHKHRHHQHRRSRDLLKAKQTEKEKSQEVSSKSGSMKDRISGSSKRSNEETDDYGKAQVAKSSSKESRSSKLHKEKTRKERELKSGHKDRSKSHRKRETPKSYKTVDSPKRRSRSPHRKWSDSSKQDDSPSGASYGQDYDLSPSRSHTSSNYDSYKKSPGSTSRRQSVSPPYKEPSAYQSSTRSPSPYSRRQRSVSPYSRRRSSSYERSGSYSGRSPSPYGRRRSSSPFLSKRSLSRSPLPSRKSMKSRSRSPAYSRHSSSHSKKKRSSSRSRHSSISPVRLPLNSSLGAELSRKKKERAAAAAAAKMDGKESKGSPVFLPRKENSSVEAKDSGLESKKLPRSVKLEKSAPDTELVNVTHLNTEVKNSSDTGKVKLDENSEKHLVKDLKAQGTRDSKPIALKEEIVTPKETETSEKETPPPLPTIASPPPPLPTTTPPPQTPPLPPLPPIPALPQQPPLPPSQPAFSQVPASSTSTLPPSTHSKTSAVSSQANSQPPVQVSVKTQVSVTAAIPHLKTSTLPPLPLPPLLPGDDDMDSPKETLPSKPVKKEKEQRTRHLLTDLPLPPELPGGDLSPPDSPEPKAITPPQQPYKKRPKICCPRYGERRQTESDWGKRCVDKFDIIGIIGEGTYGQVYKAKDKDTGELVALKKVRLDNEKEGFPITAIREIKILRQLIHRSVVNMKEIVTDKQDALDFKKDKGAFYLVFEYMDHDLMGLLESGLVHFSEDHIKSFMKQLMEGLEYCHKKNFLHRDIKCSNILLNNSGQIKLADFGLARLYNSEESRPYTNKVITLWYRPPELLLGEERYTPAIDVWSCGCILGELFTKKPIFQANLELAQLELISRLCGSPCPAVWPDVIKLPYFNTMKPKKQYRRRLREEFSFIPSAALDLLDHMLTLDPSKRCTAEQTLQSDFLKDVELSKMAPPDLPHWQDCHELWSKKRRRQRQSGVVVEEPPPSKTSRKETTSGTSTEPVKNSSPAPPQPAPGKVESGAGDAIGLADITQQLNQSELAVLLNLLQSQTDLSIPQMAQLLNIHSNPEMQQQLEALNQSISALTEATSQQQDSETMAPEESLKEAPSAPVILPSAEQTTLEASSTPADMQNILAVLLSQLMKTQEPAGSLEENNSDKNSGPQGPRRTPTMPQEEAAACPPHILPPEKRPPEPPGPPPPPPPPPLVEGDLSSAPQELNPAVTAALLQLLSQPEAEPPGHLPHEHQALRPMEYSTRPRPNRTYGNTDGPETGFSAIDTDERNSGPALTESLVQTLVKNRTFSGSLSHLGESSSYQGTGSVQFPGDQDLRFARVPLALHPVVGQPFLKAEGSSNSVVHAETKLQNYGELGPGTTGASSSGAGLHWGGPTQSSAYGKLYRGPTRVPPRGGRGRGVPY
Sequence of CDK12/CyclinK (O75909 whole entry partner): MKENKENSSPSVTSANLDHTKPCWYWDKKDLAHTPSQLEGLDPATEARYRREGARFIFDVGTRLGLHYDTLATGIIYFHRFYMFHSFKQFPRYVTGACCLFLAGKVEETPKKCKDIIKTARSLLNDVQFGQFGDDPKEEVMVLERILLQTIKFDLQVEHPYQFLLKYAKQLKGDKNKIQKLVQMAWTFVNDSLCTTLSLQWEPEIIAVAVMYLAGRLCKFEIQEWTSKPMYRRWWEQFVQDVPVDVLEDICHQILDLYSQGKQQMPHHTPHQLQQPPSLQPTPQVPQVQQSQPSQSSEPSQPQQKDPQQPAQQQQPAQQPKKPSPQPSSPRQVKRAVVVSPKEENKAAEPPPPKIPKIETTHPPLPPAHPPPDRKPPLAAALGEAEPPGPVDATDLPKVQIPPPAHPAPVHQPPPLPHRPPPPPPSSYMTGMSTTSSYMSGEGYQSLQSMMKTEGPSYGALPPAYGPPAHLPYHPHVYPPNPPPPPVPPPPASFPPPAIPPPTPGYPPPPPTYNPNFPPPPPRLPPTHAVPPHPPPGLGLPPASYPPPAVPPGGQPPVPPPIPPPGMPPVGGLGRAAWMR

Row | Compound | IC50 [1] | GI50 [2] | GI50 [3]
1 | Cc1ccc(-c2ccc(CNc3nc(-c4cccnc4)nc4c3ncn4C(C)C)nc2)cn1 [Example 3, 9-isopropyl-N-((6′-methyl-[3,3′-bipyridin]-6-yl)methyl)-2-(pyridin-3-yl)-9H-purin-6-amine] | 1.11 µM | 13.6 µM | 23.1 µM
2 | CC(C)n1cnc2c(NCc3ccc(-c4cccnc4)nc3)nc(-c3cccnc3)nc21 [Example 6, N-([2,3′-bipyridin]-5-ylmethyl)-9-isopropyl-2-(pyridin-3-yl)-9H-purin-6-amine] | 0.221 µM | 0.248 µM | 0.416 µM
3 | CC(C)n1cnc2c(NCc3ccc(-c4ccncc4)nc3)nc(-c3cccnc3)nc21 [Example 7, N-([2,4′-bipyridin]-5-ylmethyl)-9-isopropyl-2-(pyridin-3-yl)-9H-purin-6-amine] | 0.153 µM | 0.5 µM | 0.801 µM
4 | CC(C)n1cnc2c(NCc3ccc(-c4cccnc4)nc3)nc(-c3ccc4[nH]ccc4c3)nc21 [Example 11, N-([2,3′-bipyridin]-5-ylmethyl)-2-(1H-indol-5-yl)-9-isopropyl-9H-purin-6-amine] | 0.155 µM | 1.36 µM | 1.5 µM
5 | CC(C)n1cnc2c(NCc3ccc(-c4cccnc4)nc3)nc(-c3ccnc(N)c3)nc21 [Example 19, N-([2,3′-bipyridin]-5-ylmethyl)-2-(2-aminopyridin-4-yl)-9-isopropyl-9H-purin-6-amine] | 0.094 µM | 0.362 µM | –
6 | CC(C)n1cnc2c(NCc3ccc(-c4cccnc4)nc3)nc(-c3cnc(N)nc3)nc21 [Example 21, N-([2,3′-bipyridin]-5-ylmethyl)-2-(2-aminopyrimidin-5-yl)-9-isopropyl-9H-purin-6-amine] | 0.087 µM | – | –
7 | CC(C)n1cnc2c(NCc3ccc(-c4cccnc4)nc3)nc(-c3ccn[nH]3)nc21 [Example 22, N-([2,3′-bipyridin]-5-ylmethyl)-9-isopropyl-2-(1H-pyrazol-5-yl)-9H-purin-6-amine] | 0.501 µM | – | 1.72 µM
8 | CC(C)n1cnc2c(NCc3ccc(-c4cccnc4)nc3)nc(-c3cn[nH]c3)nc21 [Example 23, N-([2,3′-bipyridin]-5-ylmethyl)-9-isopropyl-2-(1H-pyrazol-4-yl)-9H-purin-6-amine] | 1.43 µM | – | 1.99 µM
9 | CC(C)n1cnc2c(NCc3ccc(-c4cccnc4)nc3)nc(-c3ccc(N)cc3)nc21 [Example 27, N-([2,3′-bipyridin]-5-ylmethyl)-2-(4-aminophenyl)-9-isopropyl-9H-purin-6-amine] | 0.15 µM | – | 0.813 µM
10 | CC(C)n1cnc2c(NCc3ccc(-c4cccnc4)nc3)nc(-c3ccnc(F)c3)nc21 [Example 29, N-([2,3′-bipyridin]-5-ylmethyl)-2-(2-fluoropyridin-4-yl)-9-isopropyl-9H-purin-6-amine] | 0.164 µM | – | 1.72 µM
11 | CC(C)n1cnc2c(NCc3ccc(-c4cccnc4)nc3)nc(-c3ccnc(NCCCO)c3)nc21 [Example 38, 3-((4-(6-(([2,3′-bipyridin]-5-ylmethyl)amino)-9-isopropyl-9H-purin-2-yl)pyridin-2-yl)amino)propan-1-ol] | 0.113 µM | – | 0.479 µM
12 | COc1cncc(-c2nc(NCc3ccc(-c4ccccn4)cn3)c3ncn(C(C)C)c3n2)c1 [Example 44, N-([2,3′-bipyridin]-6′-ylmethyl)-9-isopropyl-2-(5-methoxypyridin-3-yl)-9H-purin-6-amine] | 1.53 µM | – | –
13 | CC(C)n1cnc2c(NCc3ccc(-c4cccnc4)nc3)nc(N3CCOC[C@H]3CCO)nc21 [Example 63, (R)-2-(4-(6-(([2,3′-bipyridin]-5-ylmethyl)amino)-9-isopropyl-9H-purin-2-yl)morpholin-3-yl)ethan-1-ol] | – | 0.168 µM | –

Continued, values first:

Row | IC50 [1] | GI50 [2] | GI50 [3] | Compound
14 | 0.623 µM | 1.12 µM | 1.68 µM | CC(C)n1cnc2c(NCc3ccc(-c4cccnc4)nc3)nc(-c3ccccc3)nc21 [Example 8, N-([2,3′-bipyridin]-5-ylmethyl)-9-isopropyl-2-phenyl-9H-purin-6-amine]
15 | 0.504 µM | 1.12 µM | 1.6 µM | CC(C)n1cnc2c(NCc3ccc(-c4cccnc4)nc3)nc(-c3cccc(C(N)=O)c3)nc21 [Example 9, 3-(6-(([2,3′-bipyridin]-5-ylmethyl)amino)-9-isopropyl-9H-purin-2-yl)benzamide]
16 | 0.484 µM | 3.14 µM | 3.7 µM | CC(C)n1cnc2c(NCc3ccc(-c4cccnc4)nc3)nc(-c3ccc(C(N)=O)cc3)nc21 [Example 10, 4-(6-(([2,3′-bipyridin]-5-ylmethyl)amino)-9-isopropyl-9H-purin-2-yl)benzamide]
17 | 0.179 µM | 0.4 µM | 0.597 µM | CC(C)n1cnc2c(NCc3ccc(-c4cccnc4)nc3)nc(-c3ccc4cn[nH]c4c3)nc21 [Example 13, N-([2,3′-bipyridin]-5-ylmethyl)-2-(1H-indazol-6-yl)-9-isopropyl-9H-purin-6-amine]
18 | 0.257 µM | – | 0.724 µM | CC(C)n1cnc2c(NCc3ccc(-c4cccnc4)nc3)nc(-c3cccc(NCCCO)c3)nc21 [Example 33, 3-((3-(6-(([2,3′-bipyridin]-5-ylmethyl)amino)-9-isopropyl-9H-purin-2-yl)phenyl)amino)propan-1-ol]
19 | 0.304 µM | – | 1.18 µM | CC(C)n1cnc2c(NCc3ccc(-c4cccnc4)nc3)nc(-c3ccc(NCCCO)nc3)nc21 [Example 36, 3-((5-(6-(([2,3′-bipyridin]-5-ylmethyl)amino)-9-isopropyl-9H-purin-2-yl)pyridin-2-yl)amino)propan-1-ol]
20 | 0.086 µM | – | 0.47 µM | CC(C)n1cnc2c(NCc3ccc(-c4cccnc4)nc3)nc(-c3ccnc(NCCO)c3)nc21 [Example 37, 2-((4-(6-(([2,3′-bipyridin]-5-ylmethyl)amino)-9-isopropyl-9H-purin-2-yl)pyridin-2-yl)amino)ethan-1-ol]
21 | 0.221 µM | – | 0.169 µM | CC(C)n1cnc2c(NCc3ccc(-c4ccccn4)cn3)nc(-c3ccc(N)nc3)nc21 [Example 45, N-([2,3′-bipyridin]-6′-ylmethyl)-2-(6-aminopyridin-3-yl)-9-isopropyl-9H-purin-6-amine]
22 | 0.016 µM | – | 0.217 µM | CCn1cnc2c(NCc3ccc(-c4cccnc4)nc3)nc(-c3cccnc3)nc21 [Example 46, N-([2,3′-bipyridin]-5-ylmethyl)-9-ethyl-2-(pyridin-3-yl)-9H-purin-6-amine]
23 | > 10 µM | 44.2 µM | – | c1cncc(-c2ccc(CNc3nc(-c4cccnc4)nc4c3ncn4C3CCOCC3)cn2)c1 [Example 48, N-([2,3′-bipyridin]-5-ylmethyl)-2-(pyridin-3-yl)-9-(tetrahydro-2H-pyran-4-yl)-9H-purin-6-amine]
24 | – | 0.635 µM | – | CCn1cnc2c(NCc3ccc(-c4ccnc(C)c4)nc3)nc(-c3ccc4[nH]c(=O)[nH]c4c3)nc21 [Example 52, 5-(9-ethyl-6-(((2′-methyl-[2,4′-bipyridin]-5-yl)methyl)amino)-9H-purin-2-yl)-1,3-dihydro-2H-benzo[d]imidazol-2-one]
25 | – | 0.085 µM | 0.066 µM | CCn1cnc2c(NCc3ccc(-n4nc(C)cc4C)nc3)nc(-c3cnc(N)nc3)nc21 [Example 62, 2-(2-aminopyrimidin-5-yl)-N-((6-(3,5-dimethyl-1H-pyrazol-1-yl)pyridin-3-yl)methyl)-9-ethyl-9H-purin-6-amine]
